According to PMC8277129, “Bioconcentration of Several Series of Cationic Surfactants in Rainbow Trout” (Environmental Science & Technology, 2021):
“And” between values parts separate entries of the source, which are not always exact repeats. Equal entries are not always repeated. Where two headings read alike, the source gives them in different places.

Columns and labels:
rainbow trout [1] = test system: rainbow trout; parameters: method as in PMID 32062967; settings: after the 7 d exposure; cited from earlier work
gills of rainbow trout = test: Mechanistic one-box mass balance model of gill uptake and elimination; settings: for predicted gill elimination rate constant eq 1 (k2): from measured kU and modeled αW, αB, DFW
Text: To gain more mechanistic insight into the results, we formulated a simple one-box mass balance model of chemical bioconcentration in fish that considered diffusive uptake and elimination across the gills as well as biotransformation.[33] The flow of water across the gills and the flow of blood through the gills were modeled as perfusion limited resistances that constrain gill uptake and elimination. […] Consequently, these resistances are unknowns. Ion trapping effects caused by differences in pH between water at the gill surface and blood in the gills are considered, drawing on previous work on the uptake and elimination of ionizable organic chemicals across the gills of rainbow trout.[22],[23] Partitioning of the chemical from the dissolved phase into blood and into whole fish was calculated as the product of the membrane lipid–water distribution ratio (DMLW,T, including partitioning of both the neutral and the charged forms) and the fraction of membrane lipid in blood and whole fish. A detailed description of the model is provided in the SI (Text S3).
The contribution of the water perfusion and blood perfusion resistances were compared with the overall resistance for transport across the gills from water to blood (RW→B), which was calculated from the measured kU according to equation S4.3. […] For all of the other chemicals the blood resistance is insignificant compared to the overall resistance.
The rate constant for elimination across the gills, k2, can be defined as follows: [drawing 1] 1 where αB and αW are the neutral fractions of the chemical in the blood and in the water at the gill surface, respectively, and DFW is the fish-water distribution ratio of the chemical at the pH of blood (8.1) (see Text S3). Using the measured kU and the values of αW, αB, and DFW estimated for the model, k2 was calculated (Table 2).

[2] = parameters: method as in Perrin 1965, SRC, REACH, Perrin 1972, Hall 1957; settings: selected per amine type, weighted from simulated and experimental analogue data; ref Perrin 1965, SRC, REACH, Perrin 1972, Hall 1957; cited from earlier work
[3] = Membrane-water partition coefficient of the charged form (DMLW,C); format: physicochemical; settings: extrapolated from Timmer and Droge (2017)
Method: Table S3: Test chemical properties
Abbr. pKa$ Log DOC§ Log DMLW,C# SMILES
$ pKa values derived/reported for different alkylamine type analogues. The selected value is expected to be independent of chain length for all longer chain homologues, using a weighted value obtained from the different sources with more focus on experimental data:
Algorithm / simulated data Experimental reference data (25 °C)
Chem ACD/ COSMO- selected
(https://echa.europa.eu/registration-dossier/-

[4] = test system: juvenile rainbow trout (Oncorhynchus mykiss); test: Bioconcentration (BCF) experiment based on OECD 305, aqueous exposure to surfactant mixtures; format: in vivo; settings: for uptake rate constant (kU): 14 d exposure, 28 d depuration; for uptake rate constant (kU) / BCF (kU/kT) / measured total elimination rate constant (kT): whole fish
Method: (§1) Juvenile rainbow trout were purchased from EM lax in Västervik, Sweden, and held in the aquaria facility for one month prior to starting the experiment on August 28, 2018. Ethical approval for the experiments was obtained from Stockholm’s djurförsöksetiska nämnd (decision 9967–2017). The experiment was conducted in six 350 L fiberglass aquaria with a water renewal rate of 1.5 L min^–1 corresponding to a turnover time of […]. The water temperature and the air temperature in the aquaria room were 10 °C. The lighting was dim and programmed on a 12 h light/12 h dark cycle.
(§2) Three BCF experiments were conducted, one each for MIX1 and MIX2 at pH ∼7.6 (denoted MIX1 and MIX2 in the following), and one for MIX1 at pH ∼6.2 (MIX1pH). Each experiment consisted of a 14 d exposure phase and a 28 d depuration phase. There were also two control aquaria where unexposed fish were kept, one at pH 7.6 and one at pH 6.2. For the pH 6.2 aquaria, a 20% v:v formic acid solution was pumped into a premixing basin where it was mixed with the inflowing water before entering the aquarium. pH sensors monitored pH in the premixing basin and the aquarium. The pH for the MIX1 and MIX2 experiments was governed by the pH of the water supply. Water samples were collected at 8 time points during each experiment for the determination of pH and alkalinity. Water samples were collected daily during the exposure phase for determination of total organic carbon (TOC), which was measured with NDIR detection after acidification, purging and high-temperature catalytic combustion (Shimadzu TOC-L).
(§3) For the exposure phase, a methanol solution of the test chemical mixture was infused continuously at 4.0 μL min^–1 into the water inflow of the aquarium using a syringe pump. The target concentrations of the chemicals in water ranged from 2.5 to 100 μg L^–1 (Table 1). They were selected to be as low as possible to minimize the risk of toxic effects while still being high enough to enable collection of high-quality data, building on the results of the tissue distribution experiment.[32] The syringe pump was started in an aquarium containing no fish. After 16 h to allow the concentrations to stabilize, ∼80 rainbow trout were transferred to the aquarium. Over the following 14 d water samples were collected and fish were sacrificed according to the schedule in Table S5. The remaining fish were then transferred to a second aquarium that received water without chemical addition. Over the following 28 d further water samples were collected and fish were sacrificed (Table S5).
(§4) At each fish sampling, 4–6 fish were sacrificed. Fish were also sampled periodically from the control aquaria. Following stunning and severance of the spinal cord, the fish were placed in a polyethylene bag, weighed, and immediately frozen at −20 °C. The median fish weight at sacrifice was 10.94 g, with a 25th and 75th percentile of 8.43 and 13.58 g, respectively.
(§5) Three fish from each time point were prioritized for analysis based on proximity to the median fish weight. Each fish was semithawed, cut into 3–4 pieces, and homogenized with an Ultra-Turrax device. 150 mg of the homogenate was transferred to a preweighed 13 mL polypropylene tube, centrifuged to a pellet, and weighed. 50 μL of methanol was added and the prepared aliquot was frozen. For extraction internal standard solution (isotope labeled standards of Q10 (D21), Q14 (D29), and P16 (D33)), 3 mL of methanol and 3 steel balls (3.2 mm diameter) were added to the prepared aliquot. This mixture was mixed in a bullet blender for 1 min, and then placed in an ultrasound bath at 50 °C for 60 min. Following centrifugation, the supernatant was decanted and the extraction was repeated. The extracts were combined and a portion corresponding to 25–50 mg homogenate was cleaned up on a weak cationic exchange SPE column (WCX, 60 mg) as described elsewhere.[32] […]

[5] = as above; format: in vivo, Oncorhynchus mykiss; settings: whole fish, read-out: measured total elimination rate constant (kT) (converted)
Method: as §1, §2, §3, §4, §5

rainbow trout [6] = test: Semiquantitative screening of demethylation metabolites in exposed fish; format: in vivo; settings: last time point of the exposure phase
Method: Semiquantitative screening of possible demethylation metabolites was conducted in the fish collected at the last time point of the exposure phase. […] Demethylation of T10 to form S10 was reported in an in vitro S9 assay, and it was proposed that this is an important elimination mechanism for tertiary amines in fish.[27] There is in vitro evidence that demethylation of secondary alkylamines also occurs, which will be reported elsewhere.[37]

[7] = ref Timmer and Droge (2017); cited from earlier work
[8] = Estimated neutral fraction in water at the fish gill surface; settings: pH 7.6 experiments; estimated pKa of 10
Text: The BCF was markedly lower for the QACs compared to tertiary amines with the same chain length: a factor >670 for Q10 compared to T10, and a factor 160 for Q14 compared to T14 (Figure 1, upper panel). The prominent structural difference between the QACs and the analogous tertiary amines is that the former are permanently charged, while the latter exist in both a charged (protonated) and a neutral form.
Text S5: Estimation of pH at the gill surface
The pH at the surface of the gills was calculated using the following system of 5 equations:
alk = 2 × [CO2 ― ] + [HCO ― ] (3)
DIC = [H CO ] + [HCO ― ] + [CO2 ― ] (4) where alk is alkalinity and DIC is total dissolved inorganic carbon. The dissociation constants K1 and K2 were estimated from water temperature according to equations 9.23 and 9.24 in http://www-naweb.iaea.org/napc/ih/documents/global_cycle/vol%20I/cht_i_09.pdf The measured pH and alkalinity in bulk water were used to solve for [H+], [HCO3-], [CO32-], [H2CO3] and DIC. For the water in the gill lamella, the carbon added to the water via respiration (0.0002 mol L-1 based on estimated oxygen demand and gill ventilation rate for a 10 g fish at 10 °C (Arnot et al. 2008, Armitage et al. 2013)) was added to DIC, and using this new DIC and the alkalinity the 5 equations were resolved for [H+], [HCO3-], [CO32-], [H2CO3] and pH. […]

SMILES | fraction in gills and skin/mucus (rainbow trout [1]) [%] | k2/kT (gills of rainbow trout; pH 6.2 (MIX1pH)) | predicted gill elimination rate constant eq 1 (k2) (gills of rainbow trout; pH 6.2 (MIX1pH)) [h^–1] | modeled water resistance as share of the measured uptake resistance (gills of rainbow trout; pH 7.6) | k2/kT (gills of rainbow trout; pH 7.6 (MIX1, MIX2)) | predicted gill elimination rate constant eq 1 (k2) (gills of rainbow trout; pH 7.6 (MIX1, MIX2)) [h^–1] | pKa used (selected value) [2] | Log DMLW,C (membrane-water partition coefficient of the charged form) [3] | factor by which BCF is lower at pH 6.2 than at pH 7.6 ([4]; MIX1 vs MIX1pH) | factor by which kT is greater at pH 6.2 than at pH 7.6 ([4]; MIX1 vs MIX1pH) | uptake rate constant (kU) ([4]; pH 6.2 (MIX1pH)) [L kg^–1 h^–1] | BCF (kU/kT) ([4]; pH 6.2 (MIX1pH)) [L kg^–1] | uptake rate constant (kU) ([4]; pH 7.6 (MIX1, MIX2), 10 °C) [L kg^–1 h^–1] | BCF (kU/kT) ([4]; pH 7.6 (MIX1, MIX2)) [L kg^–1] | demethylation metabolites observed in fish (rainbow trout [6]) | Log DMLW,C (membrane-water partition coefficient of the charged form) [7] | measured total elimination rate constant (kT) ([4]; pH 7.6 (MIX1, MIX2)) [h^–1] | also measured
CCCCCCCCCCCCCCCCN [P16, Hexadecylamine] | 73 | 0.09 | 0.00023 | exceeds 50% | 0.01 | 0.00003 | C16NH2 (10.6) | 7.90 | 2 | no pH dependency for kT | 7.8 | 3000 | 15.3 | 6100 |  |  |  | pH dependency of k2 (factor between pH 7.6 and pH 6.2) (gills of rainbow trout; MIX1 vs MIX1pH): 7; factor by which kU is lower at pH 6.2 than at pH 7.6 ([4]; MIX1 vs MIX1pH): 2; k el ([5]; pH 6.2 (MIX1pH)): 7.22e-07 s⁻¹; k el ([5]; pH 7.6 (MIX1, MIX2)): 6.94e-07 s⁻¹
CCCCCCCCCCCCNC [S12, N-methyldodecylamine] |  |  |  |  | 0.6 | 0.004 | C12N(CH3)H (10.8) |  |  |  |  |  | 5.5 | 840 | P12, a metabolite of S12, was also observed | 5.39 | 0.0066 | 
CCCCCCCCCCCCCCCCNC [S16, N-methylhexadecylamine] | 71 |  |  |  | 0.03 | 0.00007 | C16N(CH3)H (10.8) | 7.71 |  |  |  |  | 22 | 8200 | P16 was not detected |  | 0.0027 | 
CCCCCCCCCN(C)C [T9, N,N-dimethylnonylamine] |  |  |  |  | 4.6 | 0.27 | C13N(CH3)2 (10.0) |  |  |  |  |  | 2.0 | 35 | trace levels of the corresponding primary amines | 3.07 | 0.059 | factor by which k2 exceeded kT (gills of rainbow trout; pH 7.6): ~5
CCCCCCCCCCCCCN(C)C [T13, N,N-dimethyltridecylamine] |  | 2.8 | 0.039 | exceeds 50% | 1.9 | 0.010 | C13N(CH3)2 (10.0) | 5.88 | 9.5 | 3 and 2.8 | 4.7 | 340 | 15.9 | 3200 | trace levels of the corresponding primary amines |  | 0.0049 | measured total elimination rate constant (kT) ([4]; pH 6.2 (MIX1pH)): 0.0139 h^–1; BCF compared with REACH B (2000) and vB (5000) thresholds ([4]; pH 7.6): greater than 2000 L kg ww^–1
CCCCCCCCCCCCCCN(C)C [T14, N,N-dimethyltetradecylamine] |  |  |  |  | 1.2 | 0.004 | C14N(CH3)2 (10.0) | 6.46 |  |  |  |  | 27 | 8100 |  |  | 0.0034 | neutral fraction in the water at the fish gill surface [8]: approximately 0.002; factor by which kU is higher than for Q14 ([4]; pH 7.6): 260
